The values that follow come from ChEMBL document CHEMBL1143496, “Privileged structure based ligands for melanocortin receptors--substituted benzylic piperazine derivatives” (Bioorg Med Chem Lett, 2005).

pKi: −log10 of the molar value.

For the assay, the target named is Melanocortin receptor 4 (Homo sapiens, UniProt P32245). The assay can be described thus: Inhibition of [125I]-NDP MSH binding to human Melanocortin 4 receptor.
Melanocortin receptor 4, sequence (P32245 whole entry): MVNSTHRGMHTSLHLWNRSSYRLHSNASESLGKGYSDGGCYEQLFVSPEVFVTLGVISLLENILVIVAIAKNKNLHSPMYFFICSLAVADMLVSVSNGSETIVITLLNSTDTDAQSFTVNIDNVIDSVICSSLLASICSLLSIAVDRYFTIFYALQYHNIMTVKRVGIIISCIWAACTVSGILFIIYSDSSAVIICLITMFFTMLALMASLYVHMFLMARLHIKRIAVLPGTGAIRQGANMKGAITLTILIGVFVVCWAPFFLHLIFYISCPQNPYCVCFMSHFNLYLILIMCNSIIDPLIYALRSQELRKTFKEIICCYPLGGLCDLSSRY
The term pKi denotes the Ki on a negative log10 scale, so that one unit is a factor of ten. Lower therefore signals a large Ki. In turn, `CCN(CC)CC(c1ccc(C(F)(F)F)cc1)N1CCN(C)CC1` (configuration not stated) had a pKi of 6.70.

For `CCN(CC)CC(c1cccc(C(F)(F)F)c1)N1CCN(C)CC1` (configuration not stated), the pKi is 6.82. This pKi and that of the compound before are within 0.2 log units of each other.

Compound `CCN(CC)Cc1ccccc1N1CCN(C(=O)[C@@H](Cc2ccc(Cl)cc2)NC(=O)[C@H]2Cc3ccccc3CN2)CC1` showed a pKi of 7.85. This pKi lies 1.03 log units higher than the previous one.

Turning to `CCN(CC)C(=O)C(c1ccccc1F)N1CCN(C)CC1` (configuration not stated), the pKi was 6.90.

Take `CCN(CC)CC(c1ccccc1Cl)N1CCN(C)CC1` (configuration not stated): the pKi is 7.15.

`CN1CCN(C(CNS(C)(=O)=O)c2ccccc2F)CC1` (configuration not stated): the negative-log Ki (pKi) is 6.33.

Consider `CCN(CC)C[C@H](c1ccccc1F)N1CCN(C)CC1`, for which the pKi is 7.85.

In turn, `CN1CCN(Cc2ccccc2)CC1` showed a pKi of 5.70.

Compound `CCN(CC)CC(c1ccccc1F)N1CCN(C)CC1` (configuration not stated) gave a pKi of 7.70.

In turn, `CCN(CC)CC(c1ccc(F)cc1F)N1CCN(C)CC1` (configuration not stated) showed a pKi of 7.00.

Compound `CCN(CC)C[C@H](c1ccccc1)N1CCN(C)CC1` had a pKi of 6.72. This pKi is 0.28 log units lower than that of the compound before.

Consider `CCN(CC)CC(c1ccccc1)N1CCN(C)CC1` (configuration not stated), for which the pKi is 7.05. This pKi lies 0.33 log units higher than the previous one.

The compound `CCN(CC)CC(c1ccccc1OC)N1CCN(C)CC1` (configuration not stated) gave a negative logarithm of the Ki (pKi) of 6.72. This pKi is 0.33 log units lower than that of the compound before.

Regarding `CCN(CC(c1ccccc1F)N1CCN(C)CC1)S(C)(=O)=O` (configuration not stated), the pKi was 6.80. The pKi values of the last two compounds are within 0.2 log units of each other.

Compound `CCN(CC)CC(CCc1ccccc1)N1CCN(C)CC1` (configuration not stated) had a pKi of 6.89.

As to `CCN(CC)CC(CCCc1ccccc1)N1CCN(C)CC1` (configuration not stated), the negative logarithm of the Ki (pKi) is 6.96. The pKi values of the last two compounds are within 0.2 log units of each other.

On to `CCN(CC)CC(c1c(F)cccc1F)N1CCN(C)CC1` (configuration not stated), for which the pKi was 6.82.

Consider `CC(c1ccccc1)N1CCN(C)CC1` (configuration not stated), for which the pKi is 6.15.

`CCN(CC)CC(c1ccccc1C)N1CCN(C)CC1` (configuration not stated) gave a pKi of 7.15. Against the preceding compound, the pKi is 1.00 log units higher.

For the compound `CCN(CC)C[C@@H](c1ccccc1)N1CCN(C)CC1`, the negative-log Ki (pKi) was 7.30. The pKi values of the last two compounds are within 0.2 log units of each other.

`COC(=O)NCC(c1ccccc1F)N1CCN(C)CC1` (configuration not stated): the pKi was 6.32.

In turn, `CCN(CC)CC(Cc1ccccc1)N1CCN(C)CC1` (configuration not stated) showed a pKi of 7.40.

In turn, `CCN(CC)C[C@@H](c1ccccc1F)N1CCN(C)CC1` gave a pKi of 6.95.

`CC(=O)NCC(c1ccccc1F)N1CCN(C)CC1` (configuration not stated) had a pKi of 6.33.

In turn, `CCN(CC)CC(c1ccccc1C(F)(F)F)N1CCN(C)CC1` (configuration not stated) gave a pKi of 7.40.

Regarding `CCN(CC(c1ccccc1F)N1CCN(C)CC1)C(C)=O` (configuration not stated), the pKi is 6.97. Against the preceding compound, the pKi is 0.43 log units lower.

Consider `CCN(CC(c1ccccc1F)N1CCN(C)CC1)C(=O)OC` (configuration not stated), for which the pKi was 6.58.
